Counter-ions that a name gives are not always drawn. Like-named read-outs stand apart in the source and are kept apart here.
Experiments:
[1] = conversion of the g/L value
[2] = cited from earlier work

For `NNc1nncc2ccccc12` [Hydralazine HCl], the solubility in water [1] is given as roughly 0.8% and the solubility in water [2] is given as “approximately 8 g/L”.

From US10434138B2, “Formulations” (Sublimity Therapeutics Limited, priority 2013, dated 2019)
